{
  "source": "patent US20130143964A1",
  "about": "“S[…], AND COSMETIC COMPOSITION, FOOD, AND SUNDRY ARTICLE CONTAINING THE SAME” (priority 2010, published 2013)",
  "test_system": "activity of the sympathetic nerve",
  "assay": "Test of measuring sympathetic nerve activity: power spectrum analysis of systolic blood pressure fluctuation (SBP-LF) when smelling the aroma",
  "assay_type": "in vivo, human test subjects",
  "method": "The test samples were prepared by diluting ethyl 4-methoxybenzoate with ethanol to a concentration of 0.1 mass %, and how the aromas of those test samples influenced the sympathetic nerve activity was tested.\n(Test Method of Measuring Sympathetic Nerve Activity)\nA heart beat interval or blood pressure constantly change in a complex manner even at rest, and is under control of multiple nervous systems representing the sympathetic nerve and the parasympathetic nerve. Thus, it is known that the activity of respective nervous systems can be calculated by analyzing the frequency of a heart beat interval variation (a heart beat interval fluctuation) or a blood pressure variation (a blood pressure fluctuation). […] The activity of the sympathetic nerve is quantified from the intensity of the low frequency component (SBP-LF), and an influence of an aroma given off from the test sample on the activity of the sympathetic nerve was evaluated. […]\nA tonometry sensor was fitted at a carpal radius […] of a test subject, and is connected to a patient monitor for continuous measurement of blood pressure. […] Continuously measured blood pressure data was taken in a personal computer to undergo power spectrum analysis of the blood pressure fluctuation in systole using automatic nervous system activity analytical software. […]",
  "data": [
    {"smiles": "CCOC(=O)c1ccc(OC)cc1", "note": "[ethyl 4-methoxybenzoate]", "values": [
      {"measurement": "activity of the sympathetic nerve (determination from SBP-LF ratio)", "setting": "six test subjects in their 20's smelling aroma of 0.1 mass % test sample", "result": "the activity of the sympathetic nerve quieted down"},
      {"measurement": "SBP-LF ratio (SBP-LF value when smelling the aroma divided by SBP-LF value when not smelling the aroma)", "setting": "six test subjects in their 20's, 0.1 mass % in ethanol, 20 μl soaked into cotton stuck below the nose, ethanol volatilized, 25° C., humidity 45%", "result": "smaller than 1"}
    ]}
  ]
}
